The text below walks through data of article PMC8364938 (MicrobiologyOpen, 2021).

Broadly, the Km is the substrate concentration at which the rate is half of its maximum.

The test system of the assay is 9His-cgLAAO1. Description: coupled peroxidase/o-dianisidine assay, Hanes-Woolf. Format: biochemical, Colletotrichum gloeosporioides. Conditions: 50 mM TEA/HCl pH 7.0, 30 °C.

For `NC(=O)CC[C@H](N)C(=O)O` [L-glutamine], the Km was found to be 760 ± 100 µM.
In the case of `COC(=O)[C@@H](N)CC(C)C` [L-leucine methyl ester] it was 12900 ± 300 µM.
In the case of `CC(C)C[C@H](N)C(=O)O` [L-leucine] it was 1200 ± 200 µM; in that of `CSCC[C@H](N)C(=O)O` [L-methionine], 1060 ± 500 µM; in that of `N[C@@H](Cc1ccccc1)C(=O)O` [L-phenylalanine], 320 ± 30 µM.
